Experimental data: patent US20260174739A1 (priority 2022, published 2026)
Like-named read-outs stand apart in the source and are kept apart here.

Columns and labels:
[1] = system: male C57 mice; assay: Forced swim test; format: in vivo; conditions: intraperitoneal injection, test 0.5 h after dosing, motionless time in last 4 min
Experimental: Drug: the compound of the present disclosure was first uniformly mixed with 5% DMSO and 5% Solutol® HS 15. hysiological saline was then added to make up 90% of the final volume. The mixture was prepared at an appropriate concentration immediately before use.
Animal: male C57 mice, about 22 g. The animals were randomly divided into a blank control group and test drug groups, 8 animals per group, and mice in each group were administered either the vehicle or the test compound via intraperitoneal injection.
Experimental steps: the mice were subjected to forced swim test 0.5 h after dosing. The water level in the forced swim device was 45 cm, and the water temperature was 25° C. The mice were placed in an experimental room to adapt to the environment for 1 h before the experiment began. When the experiment began, the mice were placed in the device for 6 min, and the whole process was recorded by a camera. Only the motionless time of the mice in the last 4 min was counted when data were analyzed.

[2] = In vivo metabolism (pharmacokinetic) experiment in mice; set-up: species or system male ICR mice; conditions: male, ICR, mouse, po, 10 mg/kg, male ICR mice; for AUC(0-inf) / Cmax / half-life: oral 10 mg/kg, plasma; for AUC(0-inf): read-out: AUC0-inf(po); for Cmax: read-out: Cmax (po); for half-life: read-out: T1/2 (po) (converted)
Experimental: Animal: male ICR mice. The animals were randomly assigned to treatment groups and fasted for 12 h prior to dosing.
Drug: the compound of the present disclosure was dissolved in a vehicle (5% DMSO+5% Solutol HS15+90% saline). For intravenous (iv) administration, the dose was 2.5 mg/kg with a dosing volume of 5 mL/kg; for oral (po) administration, the dose was 10 mg/kg with a dosing volume of 10 mL/kg body weight. Sample collection and bioanalysis: blood was collected from the orbit of the mice and added into EP tubes containing heparin sodium at 0.083, 0.25, 0.5, 1, 2, 4, 6, and 8 h (n=3 for each time point). Immediately after blood collection, the mice were euthanized by cervical dislocation, and mouse brains were collected at the corresponding time points. All samples were promptly collected, snap-frozen, and stored at −70° C. for later use. Plasma samples were obtained by centrifugation of whole blood. 10 μL of plasma was mixed with 190 μL of internal standard solution (20 ng/ml in acetonitrile containing 0.1% formic acid). After mixing, the samples were centrifuged at 13000 rpm for 10 min, and 120 μL of the supernatant was separately collected. Depending on the sensitivity of the compound, 0.5-10 μL of the supernatant was taken for drug analysis using the appropriate liquid chromatography-tandem mass spectrometry (LC-MS/MS). Each analyte was calibrated and identified using standards. According to brain tissue: the extract (50% acetonitrile/water) at a ratio of 1 g:8 mL was homogenized for 2 min using five 3 mm magnetic beads in an OMNI Bead Ruptor 24 Elite homogenizer at 3.2 m/s and centrifuged at 4° C. and 3000 g for 3 min. 50 μL of the supernatant was mixed with 200 μL of internal standard solution (20 ng/mL in 80% acetonitrile/water). After mixing, the samples were centrifuged at 13,000 rpm for 10 min, and 120 μL of the supernatant was separately collected. Depending on the sensitivity of the compound, 0.5-10 μL of the supernatant was taken for drug analysis using the appropriate LC-MS/MS method. Each analyte was calibrated and identified using standards.
Data analysis: drug concentrations below the lower limit of quantification (LLOQ) were considered zero. Pharmacokinetic parameters were analyzed using PK Solver with a non-compartmental, bolus injection or extravascular input analysis models. Data points below the LLOQ were excluded to improve the efficacy of t1/2 calculation.

[3] = Human liver microsome assay (metabolic stability); format: in vitro ADME; conditions: human liver microsomes 0.2 mg/mL, 1 μM test drug, NADPH, 37° C.; for half-life at 1 μM / CLint scaled at 1 μM: pH 7.4; for half-life at 1 μM: read-out: Half-life (t1/2, min); for CLint scaled at 1 μM: read-out: Intrinsic clearance (Clint, mL/min/kg)
Experimental: Control and reagent: NADPH, magnesium chloride, testosterone, phosphate buffer, etc. were supplied by Dalian Meilun Biotech Co., Ltd., etc.
Liver microsome: human liver microsomes were supplied by Corning.
Experimental step: the liver microsome incubations were performed in 96-well plates, each incubation system having a volume of 200 μL, in a medium of 0.1 M phosphate buffer (pH 7.4), including liver microsomes at a final concentration of 0.2 mg/mL, 1 μM of the test drug, 3.0 mM MgCl2, 0.01% DMSO, 0.5% acetonitrile, and 2.0 mM NADPH. The incubation system described above without NADPH was pre-incubated at 37° C. for 5 min using a rotary water bath constant temperature oscillator. NADPH was added to initiate the reaction. At 0, 5, 15, 30, and 60 min, 20 μL of the sample was taken out from the incubation system after mixing well and added to 200 μL of acetonitrile containing an internal standard to terminate the reaction. Under the same conditions, 1 μM testosterone was used as a positive control to assess the reliability of the reaction system. For the negative control, phosphate buffer was used instead of NADPH, and all other incubation conditions remained the same. At 60 min, 20 μL of the sample was taken out after mixing well and added to 200 μL of termination solution containing an internal standard to terminate the reaction.
Sample analysis: After treatments such as precipitated protein extraction with an organic solvent, the incubated sample was analyzed using liquid chromatography-tandem mass spectrometry (LC-MS/MS). The concentrations of the test drug or the positive control drug in the sample were semi-quantified. The concentration in the sample was expressed using the ratio of the analyte peak area to the internal standard peak area.
Data processing and analysis: A standard curve of the In residual rate of the drug in the incubation system with respect to the incubation time was plotted by using Excel software, linear regression was performed to obtain a slope k, and the half-life T1/2 (min) and the intrinsic clearance CLint (mL/min/kg) were calculated according to the following formula: […]

[4] = target: human SERT (Homo sapiens, UniProt P31645); assay: Inhibitory activity assay against 5-HT transporter (neurotransmitter transporter uptake assay kit); format: cell-based; conditions: HEK-293 cells overexpressing human SERT; read-out: 5-HTT (IC50)
human SERT, sequence (P31645 whole entry): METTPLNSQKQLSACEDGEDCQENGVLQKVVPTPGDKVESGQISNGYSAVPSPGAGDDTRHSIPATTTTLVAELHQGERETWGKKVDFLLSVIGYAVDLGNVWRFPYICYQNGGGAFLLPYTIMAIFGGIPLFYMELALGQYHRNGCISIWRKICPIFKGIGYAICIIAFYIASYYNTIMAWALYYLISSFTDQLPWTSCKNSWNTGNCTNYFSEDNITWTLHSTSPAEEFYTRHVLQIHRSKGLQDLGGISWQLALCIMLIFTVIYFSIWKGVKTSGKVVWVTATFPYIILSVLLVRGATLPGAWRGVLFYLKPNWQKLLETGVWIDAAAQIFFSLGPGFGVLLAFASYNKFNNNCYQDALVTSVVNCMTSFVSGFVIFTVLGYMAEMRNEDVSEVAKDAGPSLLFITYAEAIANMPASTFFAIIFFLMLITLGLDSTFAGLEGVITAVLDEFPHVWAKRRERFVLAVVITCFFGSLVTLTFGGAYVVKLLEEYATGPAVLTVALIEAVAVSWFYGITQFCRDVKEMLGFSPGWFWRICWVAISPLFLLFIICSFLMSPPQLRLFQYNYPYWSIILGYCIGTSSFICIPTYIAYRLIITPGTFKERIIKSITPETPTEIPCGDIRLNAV
Experimental: In HEK-293 cells overexpressing human SERT, the transporter inhibitory effect of the test compound on human SERT was assayed using a Neurotransmitter transporter uptake assay kit (Molecular devices).

[5] = target: human DAT (Homo sapiens, UniProt Q01959); assay: DAT transporter inhibitory activity test (neurotransmitter transporter uptake assay kit); format: cell-based
human DAT, sequence (Q01959 whole entry): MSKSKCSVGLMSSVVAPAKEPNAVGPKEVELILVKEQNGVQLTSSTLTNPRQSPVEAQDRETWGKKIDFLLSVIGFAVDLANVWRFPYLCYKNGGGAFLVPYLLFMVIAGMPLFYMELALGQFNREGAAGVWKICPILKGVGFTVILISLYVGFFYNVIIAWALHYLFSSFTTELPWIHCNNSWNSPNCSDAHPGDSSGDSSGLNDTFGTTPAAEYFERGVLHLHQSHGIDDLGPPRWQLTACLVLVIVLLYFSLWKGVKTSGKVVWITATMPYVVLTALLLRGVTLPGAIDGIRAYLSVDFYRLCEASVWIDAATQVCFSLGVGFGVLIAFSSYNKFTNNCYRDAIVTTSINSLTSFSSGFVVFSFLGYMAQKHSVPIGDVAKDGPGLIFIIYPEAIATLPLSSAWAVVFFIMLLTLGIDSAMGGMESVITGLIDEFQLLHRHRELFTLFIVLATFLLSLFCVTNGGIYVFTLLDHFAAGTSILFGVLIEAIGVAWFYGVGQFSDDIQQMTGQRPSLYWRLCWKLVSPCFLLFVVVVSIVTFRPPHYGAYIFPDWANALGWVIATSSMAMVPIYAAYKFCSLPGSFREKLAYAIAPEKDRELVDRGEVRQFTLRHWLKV
Experimental: Transporter inhibition of human DAT and NET expressed in HEK-293 cells was assessed using a neurotransmitter transporter uptake assay kit. The assay was performed as described in the kit instructions, using centanafadine as a positive control. The specific procedures were as follows:
DAT stably transfected culture: The DAT-HEK cell line was cultured in DMEM medium containing 10% fetal bovine serum and 0.2 mg/mL hygromycin B at 37° C. with 5% carbon dioxide.
DAT stably transfected cell passage: the old medium was removed, and the cells were washed once with PBS; 1 mL of TrypLE™ Express solution was then added, and the cells were incubated at 37° C. for about 2 min. When the cells were detached from the bottom of the dish, about 5 mL of complete medium pre-heated at 37° C. was added. The cell suspension was gently pipetted to separate the aggregated cells. The cell suspension was transferred to a sterile centrifuge tube and centrifuged at 1000 rpm for 5 min. In order to maintain the physiological activity of the cells, the experimental cell confluence was controlled at about 80%.
• a) After overnight transfection of NET cells, the cells were digested with trypsin, resuspended with DMEM+10% Dialyzed FBS medium, seeded into a 384-well plate at 20000 cells/well, and incubated overnight. […] After centrifuging, the plate was incubated at 37° C. for 30 min. • e) A detection reagent was prepared using 1×HBSS, and 16 μL of the detection reagent was added to each well. […] Curve fitting and IC50 calculation were performed using GraphPad Prism software nonlinear regression method.

[6] = DAT stably transfected HEK cells, read-out: DAT (IC50)

SMILES: Nc1nc2c(s1)CCC(N)(c1ccccc1)C2 (racemic) [rac-A132, 5-phenyl-4,5,6,7-tetrahydrobenzo[d]thiazole-2,5-diamine]
- Effective dose [1]: 3 mg/kg

SMILES: Nc1nc2c(s1)CCCC2(N)c1ccccc1 (racemic) [rac-A35, 4-phenyl-4,5,6,7-tetrahydrobenzothiazole-2,4-diamine]
- AUC(0-inf) [2]: 5110 ng·h/mL
- Cmax [2]: 1140 ng/mL
- half-life [2]: 2.66 h
- Effective dose [1]: 3 mg/kg

SMILES: c1ccc(C2(N3CCCC3)CCc3oncc3C2)cc1 (racemic) [rac-A55, 5-phenyl-5-(pyrrolidin-1-yl)-4,5,6,7-tetrahydrobenzo[d]isoxazole]
- half-life at 1 μM [3]: 62 min
- CLint scaled at 1 μM [3]: 65.8 mL/min/kg
- IC50 [4]: 7.2 µM
- IC50 [5, 6]: 4.5 µM

SMILES: Nc1nc2c(s1)CC(N)(c1cccc(OC(F)F)c1)CC2 (racemic) [rac-A256, 6-(3-(difluoromethoxy)phenyl)-4,5,6,7-tetrahydrobenzo[d]thiazole-2,6-diamine]
- Effective dose [1]: 5 mg/kg

SMILES: Nc1nc2c(s1)CC(N)(c1cccc(OCC(F)(F)F)c1)CC2 (racemic) [rac-A255, 6-(3-(2,2,2-trifluoroethoxy)phenyl)-4,5,6,7-tetrahydrobenzo[d]thiazole-2,6-diamine]
- Effective dose [1]: 5 mg/kg

SMILES: CN(C)C1(c2ccccc2F)CCc2nc(N)sc2C1 (racemic) [rac-A234, 6-(2-fluorophenyl)-N^6,N^6-dimethyl-4,5,6,7-tetrahydrobenzo[d]thiazole-2,6-diamine]
- IC50 [4]: 0.3 µM
- IC50 [5, 6]: 6.3 µM

SMILES: CCCNC1(c2ccccc2)CCc2nc(N)sc2C1 (racemic) [rac-A7, 6-phenyl-N^6-propyl-4,5,6,7-tetrahydrobenzothiazole-2,6-diamine]
- half-life at 1 μM [3]: > 120 min
- bioavailability ([2]; oral 10 mg/kg vs iv 2.5 mg/kg, read-out: F (%)): 55%
- AUC(0-inf) [2]: 768 ng·h/mL
- Cmax [2]: 208 ng/mL
- half-life [2]: 1.72 h
- IC50 [5]: 4.5 µM

SMILES: NC1(c2ccccc2)CCCc2scnc21 (racemic) [rac-A32, 4-phenyl-4,5,6,7-tetrahydrobenzothiazol-4-amine]
- half-life at 1 μM [3]: 196 min
- CLint scaled at 1 μM [3]: 20.7 mL/min/kg

SMILES: NC1(c2ccc3ccccc3c2)CCc2sccc2C1 (racemic) [rac-A247, 5-(naphthalen-2-yl)-4,5,6,7-tetrahydrobenzo[b]thiophen-5-amine]
- IC50 [4]: 4.5 µM
- IC50 [5, 6]: 1.5 µM

SMILES: Nc1nc2c(s1)CC(N)(c1cccc(OCC3CC3)c1)CC2 (racemic) [rac-A259, 6-(3-(cyclopropylmethoxy)phenyl)-4,5,6,7-tetrahydrobenzo[d]thiazole-2,6-diamine]
- Effective dose [1]: 5 mg/kg

SMILES: C[C@]12CC[C@H]3[C@@H](CCC4=CC(=O)CC[C@@]43C)[C@@H]1CC[C@@H]2O [Testosterone, testosterone, reference compound]
- Half-life (t1/2, min) [3]: 15.3 min
- CLint scaled at 1 μM [3]: 265 mL/min/kg

SMILES: CCNC1(c2cccc(OC)c2)CCc2nc(N)sc2C1 (racemic) [rac-A226, N^6-ethyl-6-(3-methoxyphenyl)-4,5,6,7-tetrahydrobenzo[d]thiazole-2,6-diamine]
- IC50 [4]: 2 µM
- IC50 [5, 6]: 2 µM

SMILES: CCOc1cccc(C2(N)CCc3nc(N)sc3C2)c1 (racemic) [rac-A228, 6-(3-ethoxyphenyl)-4,5,6,7-tetrahydrobenzo[d]thiazole-2,6-diamine]
- Effective dose [1]: 5 mg/kg

SMILES: CNC1(c2cccc(OC(F)F)c2)CCc2nc(N)sc2C1 (racemic) [rac-A282, 6-(3-(difluoromethoxy)phenyl)-N6-methyl-4,5,6,7-tetrahydrobenzo[d]thiazole-2,6-diamine]
- Effective dose [1]: 5 mg/kg

SMILES: Nc1nc2c(s1)CC(N)(c1ccccc1F)CC2 (racemic) [rac-A9, 6-(2-fluorophenyl)-4,5,6,7-tetrahydrobenzothiazole-2,6-diamine]
- Effective dose [1]: 1 mg/kg
- IC50 [4]: 0.8 µM

SMILES: c1ccc(C2(N3CCCCC3)CCc3ncsc3C2)cc1 (racemic) [rac-A71, 6-phenyl-6-(piperidin-1-yl)-4,5,6,7-tetrahydrobenzothiazole]
- half-life at 1 μM [3]: 210 min
- CLint scaled at 1 μM [3]: 13.8 mL/min/kg
